Assay [1] deals with Pseudomonas aeruginosa ATCC 27853. The assay can be described thus: Standard bacterial EPI assay: MIC of levofloxacin in the absence and presence of the EPI. The note with it: P. aeruginosa ATCC 27853. Type of assay: cell-based. Here is the method:
(§1) MIC assays were conducted in accordance with Clinical and Laboratory Standards Institute (CLSI) guidelines for broth microdilution. A 96-well plate containing cation-adjusted Mueller-Hinton (CAMH broth with 2-fold serial dilution of compounds was inoculated with log-phase bacterial at 5×10^5 CFU/mL. The final volume in each well was 100 μL. Each compound was tested in duplicate. The microtiter plates were incubated in an aerobic environment for 18 hours at 37° C. Then the bacterial growth was tested by reading the plate with a VersaMax plate reader (Molecular Devices, Inc.) at 600 nm. The MIC was defined as the lowest compound concentration that inhibited 90% of bacteria growth.
The EPI assay for the purposes of these studies represents a MIC assay in which the MIC of the antibiotic against the bacteria is tested in the presence of an experimental efflux pump inhibitor (EPI). […] Using serial dilutions of the EPI, its enhancement of antibiotic activity was then evaluated. […]
The impact of Example 2 on the MIC values of two test antibiotics (levofloxacin and cefepime) against P. aeruginosa ATCC 27853 were evaluated using our standard EPI assay. […]
In our standard EPI assay, the MIC of the test antibiotic is determined in the absence and presence of sub-inhibitory concentrations of the EPI. […]

In the next assay the test system is P. aeruginosa ATCC 27853. The assay can be described thus: Intrinsic MIC assay (CLSI broth microdilution). Type of assay: cell-based. To be noted: Pseudomonas aeruginosa, ATCC27853, compound alone. The protocol:
as §1
The intrinsic MIC of the experimental EPIs was tested with the method described. The 2-fold serial dilution begins with 100 μg/mL of tested compound in the first column of the 96-well plates. The following Gram-negative bacterial strains were included in these assays: […]
For orientation: Broth dilution looks for growth in wells or tubes with falling amounts of substance.

Here are results for one compound from US11826357B2, “Bacterial efflux pump inhibitors” (RUTGERS, THE STATE UNIVERSITY OF NEW JERSEY, priority 2017, dated 2023).

Each structure is given as a SMILES string. Where a name gives a salt, the structure may show the parent alone.

As usually defined, the MIC is the lowest concentration that inhibits growth of the organism. A lower MIC goes with greater potency.

On to `NCCC[C@H](N)CNC(=O)c1[nH]c2cc(-c3ccc(F)cc3)ccc2c1C1CC1` [Example 2, (S)-3-cyclopropyl-N-(2,5-diaminopentyl)-6-(4-fluorophenyl)-1H-indole-2-carboxamide dihydrochloride], for which the “MIC of levofloxacin in the presence of the EPI” value in assay [1] (6.25 μg/mL (½×MIC) of the EPI) amounted to 0.032 µg/mL. In assay [1] (6.25 μg/mL of the EPI), the “fold reduction of the MIC of levofloxacin relative to the absence of EPI” value turned out to be 32 fold. The MIC in the assay on P. aeruginosa ATCC 27853 came out at 12.5 µg/mL.
